Converted amounts (≈) assume the structure as drawn.
Key:
[1] = system: Staphylococcus aureus; experiment: Antibacterial activity against methicillin-resistant Staphylococcus aureus ATCC 3300 assessed as reduction in microbial growth measured after 24 hrs by broth microdilution analysis; assay type: functional
[2] = system: Staphylococcus aureus; experiment: Antibacterial activity against Linezolid-resistant Staphylococcus aureus assessed as reduction in bacterial growth; assay type: functional
[3] = system: Enterococcus faecium; experiment: Antibacterial activity against Linezolid-resistant Enterococcus faecium assessed as reduction in bacterial growth; assay type: functional
[4] = system: Staphylococcus aureus; experiment: Antibacterial activity against Methicillin-resistant Staphylococcus aureus assessed as reduction in microbial growth by Muller Hinton broth based dilution assay; assay type: functional
[5] = system: Staphylococcus aureus; experiment: Antibacterial activity against fluoroquinolone/methicillin resistant Staphylococcus aureus clinical isolate 19-26 assessed as bacterial growth inhibition measured after 16 to 18 hrs by serial dilution method; assay type: functional; settings: time 16-18 hrs
[6] = system: Staphylococcus aureus; experiment: Antibacterial activity against vancomycin-resistant Staphylococcus aureus assessed as bacterial growth inhibition measured after 16 to 18 hrs by serial dilution method; assay type: functional; settings: time 16-18 hrs
[7] = system: Staphylococcus aureus; experiment: Antibacterial activity against methicillin-resistant Staphylococcus aureus ATCC 4330 assessed as reduction in microbial growth incubated for 18 hrs by broth microdilution method; assay type: functional
[8] = system: Staphylococcus epidermidis; experiment: Antibacterial activity against methicillin-resistant Staphylococcus epidermidis ATCC 12228 assessed as reduction in microbial growth incubated for 18 hrs by broth microdilution method; assay type: functional
[9] = system: Staphylococcus aureus; experiment: Antibacterial activity against vancomycin-resistant Staphylococcus aureus clinical isolate 1 assessed as inhibition of bacterial growth by broth microdilution method; assay type: functional
[10] = system: Enterococcus faecium; experiment: Antibacterial activity against Enterococcus faecium ATCC 19434 assessed as reduction in microbial growth after 24 hrs by two-fold serial dilution method; assay type: functional
[11] = system: Enterococcus faecalis; experiment: Antibacterial activity against Enterococcus faecalis ATCC 29212 assessed as reduction in microbial growth after 24 hrs by two-fold serial dilution method; assay type: functional
[12] = system: Streptococcus pneumoniae; experiment: Antibacterial activity against Streptococcus pneumoniae ATCC 49619 assessed as inhibition of bacterial growth measured after 24 hrs by MH broth based assay; assay type: functional
[13] = system: Haemophilus influenzae; experiment: Antibacterial activity against Haemophilus influenzae UC30063 assessed as reduction in bacterial growth by broth microdilution method; assay type: functional
[14] = system: Moraxella catarrhalis; experiment: Antibacterial activity against Moraxella catarrhalis UC30610 assessed as reduction in bacterial growth by broth microdilution method; assay type: functional
[15] = system: Staphylococcus epidermidis; experiment: Antibacterial activity methicillin-resistant Staphylococcus epidermidis UC12084 assessed as reduction in bacterial growth by broth microdilution method; assay type: functional
[16] = system: Staphylococcus aureus; experiment: In vivo Antibacterial activity against Methicillin-resistant Staphylococcus aureus in PO dosed mouse infected model assessed as reduction in bacterial load; assay type: functional
[17] = system: Enterococcus faecalis; experiment: Antibacterial activity against Enterococcus faecalis UC9217 assessed as reduction in bacterial growth by broth microdilution method; assay type: functional
[18] = system: Escherichia coli; experiment: Antibacterial activity against Escherichia coli; assay type: functional
[19] = system: Streptococcus pneumoniae; experiment: Antibacterial activity against Streptococcus pneumoniae; assay type: functional
[20] = system: Staphylococcus aureus; experiment: In vivo antibacterial activity against Staphylococcus aureus UC9213 infected in PO dosed mouse assessed as reduction in bacterial infection measured after 6 days by hematoxylin and eosin staining based microscopic analysis; assay type: functional; settings: UC9213, 144 h, time 6 day
[21] = system: Staphylococcus aureus; experiment: Antibacterial activity against Staphylococcus aureus UC9213 assessed as reduction in bacterial growth; assay type: functional
[22] = system: Staphylococcus aureus; experiment: Antibacterial activity against Staphylococcus aureus ATCC 25923 assessed as inhibition of bacterial growth incubated for 24 hrs by CLSI based broth microdilution method; assay type: functional
[23] = system: Enterococcus faecalis; experiment: Antibacterial activity against Enterococcus faecalis ATCC 29212 assessed as inhibition of bacterial growth incubated for 24 hrs by CLSI based broth microdilution method; assay type: functional
[24] = system: Staphylococcus aureus; experiment: Antibacterial activity against Staphylococcus aureus ATCC 29213 assessed as reduction in microbial growth measured after 24 hrs by broth microdilution analysis; assay type: functional
[25] = system: Mycobacterium tuberculosis; experiment: Antimycobacterial activity against Mycobacterium tuberculosis H37Rv assessed as reduction in bacterial growth incubated for 7 days by resazurin based assay; assay type: functional; settings: 168 h, time 7 day
[26] = system: PC-3; experiment: Inhibition of mitochondrial protein synthesis in human PC-3 cells at 100 uM incubated for 5 days; assay type: functional, cell-based; settings: PC-3, 120 h
[27] = system: Staphylococcus aureus; experiment: Antibacterial activity against Staphylococcus aureus ATCC 29213 assessed as bacterial growth inhibition incubated for 24 hrs by broth dilution method; assay type: functional

Work on `O=C1O[C@@H](COc2ccon2)CN1c1ccc(C2=CCOCC2)c(F)c1` yielded an MIC [1] of 0.5 µg/mL.

Compound `CC(=O)NC[C@H]1CN(c2ccc(N3CCN(c4c(F)cc5c(=O)c(C(=O)O)cn6c5c4OCC6C)CC3)c(F)c2)C(=O)O1` (some centres undefined) has an MIC [2] of 2 µg/mL (≈ 3.35 µM) and an MIC [3] of 0.5 µg/mL (≈ 0.837 µM).

In the case of `O=C1O[C@@H](Cn2ccnn2)CN1c1ccc(N2CCN(S(=O)(=O)c3ccc(Cl)cc3)CC2)c(F)c1`, the MIC [4] is reported as 0.5 µg/mL.

`O=C1C=CN(c2c(F)cc(N3C[C@H](CNc4ccon4)OC3=O)c(F)c2F)CC1` [CONTEZOLID] gave an MIC [5] of 0.125 µg/mL (≈ 0.306 µM) and an MIC [6] of 0.5 µg/mL (≈ 1.22 µM).

With `Nc1cccc(S(=O)(=O)N2CCN(c3ccc(N4C[C@H](Cn5ccnn5)OC4=O)cc3F)CC2)c1` the MIC [4] was 0.5 µg/mL.

Work on `Cn1nnc(-c2ccc(-c3ccc(N4C[C@H](COP(=O)(O)O)OC4=O)cc3F)cn2)n1` [TEDIZOLID PHOSPHATE] yielded an MIC50 [7] of 0.12 µg/mL, an MIC90 [8] of 0.12 µg/mL and an MIC [9] of 0.25 µg/mL. The MIC [10] was 0.25 µg/mL, the MIC [11] was 0.25 µg/mL and the MIC [12] was 0.25 µg/mL.

`CC(=O)NC[C@H]1CN(c2ccc(-n3ncc(C#N)n3)c(F)c2)C(=O)O1` gave an MIC [13] of 2 µg/mL (≈ 5.81 µM), an MIC [14] of 2 µg/mL (≈ 5.81 µM) and an MIC [15] of 0.125 µg/mL (≈ 0.363 µM). The ED50 [16] was 1.9 mg/kg and the MIC [17] was 0.125 µg/mL (≈ 0.363 µM).

With `CC(=O)NC[C@H]1CN(c2ccc(-n3ccc(C#N)c3)c(F)c2)C(=O)O1` the MIC [13] was 2 µg/mL (≈ 5.84 µM), the MIC [14] was 2 µg/mL (≈ 5.84 µM) and the MIC [15] was 0.125 µg/mL (≈ 0.365 µM). For the same compound, the ED50 [16] was 1.9 mg/kg and the MIC [17] was 0.125 µg/mL (≈ 0.365 µM).

In the case of `O=C1O[C@@H](Cn2ccnn2)CN1c1ccc(N2CCN(S(=O)(=O)c3cccc([N+](=O)[O-])c3)CC2)c(F)c1`, the MIC [4] is reported as 0.5 µg/mL.

`O=C(NO)[C@@H]1CN(c2ccc(C#CC#CC3CC3)c(F)c2)C(=O)O1` gave an MIC [18] of 0.004 µg/mL (≈ 0.0122 µM) and an MIC [19] of 0.004 µg/mL (≈ 0.0122 µM).

With `CC(=O)NC[C@H]1CC(c2ccc(C3=CCN(C(=O)CO)CC3)c(F)c2)=NO1` the ED50 [20] was 9.1 mg/kg and the MIC [21] was 1 µg/mL (≈ 2.66 µM).

In the case of `CC(=O)NC[C@H]1CN(c2ccc(N3CCN(C(=O)/C=C/c4ccco4)CC3)nc2)C(=O)O1`, the MIC [22] is reported as 8 µg/mL (≈ 18.2 µM) and the MIC [23] is reported as 8 µg/mL (≈ 18.2 µM).

For `O=C([C@@H](O)CO)N1CC=C(c2c(F)cc(N3C[C@H](COc4ccon4)OC3=O)cc2F)CC1` [POSIZOLID], the MIC [24] was 0.25 µg/mL.

`C[C@@H](O)C(=O)N1CC=C(c2c(F)cc(N3C[C@H](COc4ccon4)OC3=O)cc2F)CC1` was tested, and the MIC [24] was 0.25 µg/mL.

For `CC(=O)NC[C@H]1CN(c2ccc(N3CCN(c4cc5c(cc4F)c(=O)c(C(=O)O)cn5C4CC4)CC3)c(F)c2)C(=O)O1`, the MIC [2] was 2 µg/mL (≈ 3.44 µM) and the MIC [3] was 0.5 µg/mL (≈ 0.86 µM).

`O=C1O[C@@H](Cn2ccnn2)CN1c1ccc(N2CCN(S(=O)(=O)c3cccc(F)c3)CC2)c(F)c1` gave an MIC [4] of 0.5 µg/mL.

`O=C([C@H](O)CO)N1CC=C(c2ccc(N3C[C@H](COc4ccon4)OC3=O)cc2F)CC1` was tested, and the MIC [24] was 0.25 µg/mL.

For `COC(=O)NC[C@H]1CN(c2ccc(N3CC4(COC4)C3)c(F)c2)C(=O)O1` [TBI-223], the MIC [25] was 0.6 µg/mL (≈ 1.64 µM) and the IC50 [26] was > 74 µM.

`N=C(S)NC[C@H]1CN(c2cc(F)c3c(c2)OC[C@@H]2CCCN32)C(=O)O1` gave an MIC [27] of 0.5 µg/mL (≈ 1.36 µM).

Reference: ChEMBL document CHEMBL5532634, “Oxazolidinone: A promising scaffold for the development of antibacterial drugs” (Eur J Med Chem, 2023)
